One assay concerns FLT3(ITD). Conditions: 10 μM.
The target of another assay is KIT(A829P) (Homo sapiens, UniProt P10721, A829P). In words: biochemical. Conditions: read-out: Percent control.
In the next assay the target is RET(V804TL) (Homo sapiens, UniProt P07949, V804L). Conditions: 10 μM.
In another assay the target is T1, ITK (Homo sapiens, UniProt Q08881).
T1 sequence (Q08881 1-620): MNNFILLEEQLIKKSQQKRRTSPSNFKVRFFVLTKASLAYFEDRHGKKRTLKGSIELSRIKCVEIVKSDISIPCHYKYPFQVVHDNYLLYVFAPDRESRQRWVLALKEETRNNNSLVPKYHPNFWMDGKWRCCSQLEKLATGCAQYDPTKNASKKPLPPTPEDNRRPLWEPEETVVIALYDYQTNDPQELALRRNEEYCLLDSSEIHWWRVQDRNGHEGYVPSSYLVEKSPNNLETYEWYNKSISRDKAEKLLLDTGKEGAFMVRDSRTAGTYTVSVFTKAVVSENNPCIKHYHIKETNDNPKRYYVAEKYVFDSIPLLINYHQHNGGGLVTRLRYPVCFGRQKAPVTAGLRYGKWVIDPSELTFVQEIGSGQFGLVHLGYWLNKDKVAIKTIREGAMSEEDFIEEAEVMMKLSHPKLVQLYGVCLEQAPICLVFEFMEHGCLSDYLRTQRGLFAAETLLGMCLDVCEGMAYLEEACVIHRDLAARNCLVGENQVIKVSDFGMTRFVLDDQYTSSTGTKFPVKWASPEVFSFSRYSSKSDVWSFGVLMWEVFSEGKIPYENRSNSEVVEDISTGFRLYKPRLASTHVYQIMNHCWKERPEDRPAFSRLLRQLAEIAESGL
The settings on record: 10 μM.

Another assay addresses FGFR1 (Homo sapiens, UniProt P11362). Conditions: 10 μM.
The target of the next assay is TIE2 (Homo sapiens, UniProt Q02763). Conditions: 10 μM.
A further assay has as its target FRK (Homo sapiens, UniProt P42685). The settings on record: 10 μM.
Another assay deals with FGFR3 (Homo sapiens, UniProt P22607). The settings on record: 10 μM.
The next assay addresses FLT4 (Homo sapiens, UniProt P35916). Conditions: 10 μM.
The target in another assay is T2, EPHB1 (Homo sapiens, UniProt P54762).
T2 sequence (P54762 18-984): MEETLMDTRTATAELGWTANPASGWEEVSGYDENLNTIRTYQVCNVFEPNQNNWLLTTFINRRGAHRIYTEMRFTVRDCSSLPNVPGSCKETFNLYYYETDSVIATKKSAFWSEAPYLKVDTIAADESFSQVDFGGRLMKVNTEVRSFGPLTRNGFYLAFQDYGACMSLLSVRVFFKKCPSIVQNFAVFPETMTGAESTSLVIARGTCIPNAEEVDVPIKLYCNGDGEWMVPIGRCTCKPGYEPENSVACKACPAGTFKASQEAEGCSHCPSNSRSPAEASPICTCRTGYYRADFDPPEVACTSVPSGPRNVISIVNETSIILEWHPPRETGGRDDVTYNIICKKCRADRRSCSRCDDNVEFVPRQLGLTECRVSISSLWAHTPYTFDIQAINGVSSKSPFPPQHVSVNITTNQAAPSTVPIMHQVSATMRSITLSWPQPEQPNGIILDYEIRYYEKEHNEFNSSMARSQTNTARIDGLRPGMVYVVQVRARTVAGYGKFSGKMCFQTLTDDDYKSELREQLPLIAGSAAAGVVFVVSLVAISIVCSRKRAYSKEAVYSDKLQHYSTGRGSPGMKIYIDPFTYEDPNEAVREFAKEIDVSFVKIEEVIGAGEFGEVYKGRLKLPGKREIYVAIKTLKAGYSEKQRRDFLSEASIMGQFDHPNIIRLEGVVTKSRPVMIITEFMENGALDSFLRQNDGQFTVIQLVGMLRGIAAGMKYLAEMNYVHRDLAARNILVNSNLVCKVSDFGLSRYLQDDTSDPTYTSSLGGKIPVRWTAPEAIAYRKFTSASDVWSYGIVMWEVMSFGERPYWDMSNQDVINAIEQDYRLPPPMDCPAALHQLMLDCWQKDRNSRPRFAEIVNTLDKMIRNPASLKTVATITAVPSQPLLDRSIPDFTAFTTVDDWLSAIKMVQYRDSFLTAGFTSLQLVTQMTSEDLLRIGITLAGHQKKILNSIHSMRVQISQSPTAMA
The settings on record: 10 μM.

The target in the next assay is LTK (Homo sapiens, UniProt P29376). The settings on record: 10 μM.
LTK, sequence (P29376 17-864): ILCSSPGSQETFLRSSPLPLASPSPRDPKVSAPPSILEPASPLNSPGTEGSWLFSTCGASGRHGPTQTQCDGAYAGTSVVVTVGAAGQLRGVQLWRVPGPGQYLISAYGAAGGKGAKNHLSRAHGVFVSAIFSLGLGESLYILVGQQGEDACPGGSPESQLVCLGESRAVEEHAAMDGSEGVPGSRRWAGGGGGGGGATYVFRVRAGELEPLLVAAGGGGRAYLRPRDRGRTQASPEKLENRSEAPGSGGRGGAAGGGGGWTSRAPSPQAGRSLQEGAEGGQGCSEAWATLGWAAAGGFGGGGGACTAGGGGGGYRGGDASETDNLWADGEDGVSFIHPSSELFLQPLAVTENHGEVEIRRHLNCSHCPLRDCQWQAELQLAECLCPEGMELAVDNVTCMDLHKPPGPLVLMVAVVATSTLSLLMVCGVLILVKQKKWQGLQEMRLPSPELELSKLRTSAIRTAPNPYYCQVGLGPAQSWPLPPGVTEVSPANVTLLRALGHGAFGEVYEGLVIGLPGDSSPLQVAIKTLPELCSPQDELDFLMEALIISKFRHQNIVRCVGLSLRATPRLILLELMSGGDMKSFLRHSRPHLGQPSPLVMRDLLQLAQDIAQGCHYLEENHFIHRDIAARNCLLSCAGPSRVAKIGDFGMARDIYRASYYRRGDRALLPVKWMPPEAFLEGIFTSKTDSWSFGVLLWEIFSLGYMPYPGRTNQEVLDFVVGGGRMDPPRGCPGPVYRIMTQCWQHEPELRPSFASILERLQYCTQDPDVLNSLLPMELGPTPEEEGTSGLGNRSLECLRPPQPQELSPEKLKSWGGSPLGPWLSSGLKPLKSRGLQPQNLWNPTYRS

FRK, sequence (P42685 whole entry): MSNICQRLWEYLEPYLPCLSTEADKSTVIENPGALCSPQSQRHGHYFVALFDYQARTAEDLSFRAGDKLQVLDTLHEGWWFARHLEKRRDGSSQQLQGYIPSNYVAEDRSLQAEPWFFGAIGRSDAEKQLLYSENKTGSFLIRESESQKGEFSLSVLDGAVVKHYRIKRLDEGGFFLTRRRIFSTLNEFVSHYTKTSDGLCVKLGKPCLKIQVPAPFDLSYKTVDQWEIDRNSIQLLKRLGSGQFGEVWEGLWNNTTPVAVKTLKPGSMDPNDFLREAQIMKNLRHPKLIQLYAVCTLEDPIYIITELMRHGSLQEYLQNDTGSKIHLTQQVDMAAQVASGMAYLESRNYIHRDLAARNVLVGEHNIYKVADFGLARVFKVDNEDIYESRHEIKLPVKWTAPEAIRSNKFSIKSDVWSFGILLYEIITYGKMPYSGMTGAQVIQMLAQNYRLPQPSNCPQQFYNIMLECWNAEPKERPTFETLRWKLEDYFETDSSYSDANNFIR
FGFR1, sequence (P11362 22-822): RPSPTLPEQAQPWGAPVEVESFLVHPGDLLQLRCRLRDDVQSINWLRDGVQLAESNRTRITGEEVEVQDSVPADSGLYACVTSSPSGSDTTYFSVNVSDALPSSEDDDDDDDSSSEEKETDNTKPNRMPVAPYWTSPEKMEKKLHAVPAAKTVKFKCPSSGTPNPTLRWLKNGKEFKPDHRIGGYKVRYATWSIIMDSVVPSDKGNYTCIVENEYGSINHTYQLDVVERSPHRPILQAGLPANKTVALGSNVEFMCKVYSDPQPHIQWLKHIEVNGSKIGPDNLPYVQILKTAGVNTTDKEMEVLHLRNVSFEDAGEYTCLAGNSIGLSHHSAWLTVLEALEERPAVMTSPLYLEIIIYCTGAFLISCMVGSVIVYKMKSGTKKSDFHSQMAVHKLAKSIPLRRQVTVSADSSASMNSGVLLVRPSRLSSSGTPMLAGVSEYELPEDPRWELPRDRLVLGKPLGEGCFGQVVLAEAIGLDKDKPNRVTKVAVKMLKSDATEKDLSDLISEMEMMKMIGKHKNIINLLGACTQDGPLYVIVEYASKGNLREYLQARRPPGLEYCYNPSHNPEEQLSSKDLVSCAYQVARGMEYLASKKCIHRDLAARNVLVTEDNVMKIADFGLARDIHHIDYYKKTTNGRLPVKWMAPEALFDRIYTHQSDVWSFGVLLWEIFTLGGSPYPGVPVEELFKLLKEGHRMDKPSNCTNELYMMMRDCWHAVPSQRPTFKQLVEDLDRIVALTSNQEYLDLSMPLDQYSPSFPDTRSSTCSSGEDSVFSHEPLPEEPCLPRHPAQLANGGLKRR
KIT(A829P), sequence (P10721 26-976 A829P): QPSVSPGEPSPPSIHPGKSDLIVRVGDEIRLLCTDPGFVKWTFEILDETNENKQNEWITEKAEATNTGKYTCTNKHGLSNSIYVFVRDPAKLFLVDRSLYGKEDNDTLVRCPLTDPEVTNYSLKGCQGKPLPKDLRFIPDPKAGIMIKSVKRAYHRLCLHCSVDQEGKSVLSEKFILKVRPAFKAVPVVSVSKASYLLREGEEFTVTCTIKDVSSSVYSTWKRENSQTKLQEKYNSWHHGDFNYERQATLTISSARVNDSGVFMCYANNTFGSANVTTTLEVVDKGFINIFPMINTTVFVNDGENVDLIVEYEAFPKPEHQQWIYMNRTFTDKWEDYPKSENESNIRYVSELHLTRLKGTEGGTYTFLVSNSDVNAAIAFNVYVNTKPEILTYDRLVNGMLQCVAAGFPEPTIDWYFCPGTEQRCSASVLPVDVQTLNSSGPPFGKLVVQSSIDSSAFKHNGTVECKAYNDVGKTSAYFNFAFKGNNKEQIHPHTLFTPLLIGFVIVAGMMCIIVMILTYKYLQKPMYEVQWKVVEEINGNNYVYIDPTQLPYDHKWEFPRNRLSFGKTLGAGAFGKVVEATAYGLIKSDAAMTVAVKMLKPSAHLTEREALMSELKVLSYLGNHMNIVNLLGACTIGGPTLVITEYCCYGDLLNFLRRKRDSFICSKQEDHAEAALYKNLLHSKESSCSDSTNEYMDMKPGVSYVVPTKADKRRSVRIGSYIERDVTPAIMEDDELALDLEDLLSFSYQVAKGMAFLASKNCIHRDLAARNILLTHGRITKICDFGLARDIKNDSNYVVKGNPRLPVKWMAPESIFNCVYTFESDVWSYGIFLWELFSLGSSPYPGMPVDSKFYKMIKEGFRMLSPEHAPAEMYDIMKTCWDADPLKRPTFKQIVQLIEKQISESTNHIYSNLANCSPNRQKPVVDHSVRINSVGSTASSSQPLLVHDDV
FGFR3, sequence (P22607 23-806): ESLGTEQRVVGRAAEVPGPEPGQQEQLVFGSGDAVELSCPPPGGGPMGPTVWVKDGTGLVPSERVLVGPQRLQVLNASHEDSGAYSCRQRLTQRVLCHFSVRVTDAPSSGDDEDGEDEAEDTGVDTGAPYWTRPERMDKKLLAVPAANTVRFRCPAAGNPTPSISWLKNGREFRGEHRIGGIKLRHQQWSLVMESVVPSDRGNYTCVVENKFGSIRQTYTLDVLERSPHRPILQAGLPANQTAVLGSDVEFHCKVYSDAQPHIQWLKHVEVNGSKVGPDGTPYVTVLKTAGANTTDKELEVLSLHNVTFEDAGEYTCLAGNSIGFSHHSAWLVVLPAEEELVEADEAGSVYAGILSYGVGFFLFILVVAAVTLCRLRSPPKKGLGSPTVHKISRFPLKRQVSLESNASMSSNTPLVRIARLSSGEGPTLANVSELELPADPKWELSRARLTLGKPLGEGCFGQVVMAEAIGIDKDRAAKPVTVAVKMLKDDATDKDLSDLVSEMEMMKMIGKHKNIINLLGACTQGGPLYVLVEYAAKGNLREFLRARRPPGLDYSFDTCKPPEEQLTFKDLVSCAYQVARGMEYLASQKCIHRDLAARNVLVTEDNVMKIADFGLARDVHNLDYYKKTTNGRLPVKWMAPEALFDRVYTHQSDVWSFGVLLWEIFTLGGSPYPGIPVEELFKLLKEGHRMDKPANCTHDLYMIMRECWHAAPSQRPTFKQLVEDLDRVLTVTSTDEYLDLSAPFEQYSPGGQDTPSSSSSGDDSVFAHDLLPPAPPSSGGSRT
RET(V804TL), sequence (P07949 29-1114 V804L): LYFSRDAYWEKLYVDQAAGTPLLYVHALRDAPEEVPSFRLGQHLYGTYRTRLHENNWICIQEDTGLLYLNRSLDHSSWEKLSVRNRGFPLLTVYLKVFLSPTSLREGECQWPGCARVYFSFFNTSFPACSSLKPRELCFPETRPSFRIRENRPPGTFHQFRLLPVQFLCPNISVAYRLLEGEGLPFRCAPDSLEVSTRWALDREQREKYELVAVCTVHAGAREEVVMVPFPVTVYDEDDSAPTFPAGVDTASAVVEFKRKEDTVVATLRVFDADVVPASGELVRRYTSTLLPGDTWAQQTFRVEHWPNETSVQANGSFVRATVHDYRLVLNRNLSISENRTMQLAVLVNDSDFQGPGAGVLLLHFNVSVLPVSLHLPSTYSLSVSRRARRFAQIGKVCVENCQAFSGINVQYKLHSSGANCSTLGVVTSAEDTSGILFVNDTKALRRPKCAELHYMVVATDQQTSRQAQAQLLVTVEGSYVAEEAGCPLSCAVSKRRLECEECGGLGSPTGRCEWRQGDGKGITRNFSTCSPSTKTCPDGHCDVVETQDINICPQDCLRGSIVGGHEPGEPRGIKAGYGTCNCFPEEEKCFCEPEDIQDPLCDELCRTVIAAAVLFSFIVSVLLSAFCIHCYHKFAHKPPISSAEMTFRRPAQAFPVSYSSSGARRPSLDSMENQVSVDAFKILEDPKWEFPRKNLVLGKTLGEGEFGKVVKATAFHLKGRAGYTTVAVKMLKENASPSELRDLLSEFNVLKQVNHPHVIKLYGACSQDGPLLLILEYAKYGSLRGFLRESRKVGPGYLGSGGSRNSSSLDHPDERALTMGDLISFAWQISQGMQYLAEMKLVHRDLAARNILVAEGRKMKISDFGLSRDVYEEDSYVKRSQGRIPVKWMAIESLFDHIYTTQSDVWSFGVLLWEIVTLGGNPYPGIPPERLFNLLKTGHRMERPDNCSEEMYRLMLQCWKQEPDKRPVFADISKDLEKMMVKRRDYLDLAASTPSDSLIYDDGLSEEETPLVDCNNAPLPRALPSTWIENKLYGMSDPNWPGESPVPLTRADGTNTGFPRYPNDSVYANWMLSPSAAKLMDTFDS

In turn, `COc1cc2c(Nc3ccc(Br)cc3F)ncnc2cc1OCC1CCN(C)CC1` [Vandetanib, reference compound] showed a Percent control with FLT3(ITD) of 15.3%. The remaining activity at 10 µM at KIT(A829P) was 0.3%.

With `Cc1ccc(NC(=O)c2ccc(CN3CCN(C)CC3)cc2)cc1Nc1nccc(-c2cccnc2)[n+]1[Pt-2]1([Cl])[NH2+]C2CCCCC2[NH2+]1` (stereo not shown) [1b, oxaliplatin-imatinib], the Percent control in the assay on FLT3(ITD) was found to be 74%; at RET(V804TL), 100%; at ITK, 100%; on FGFR1 it was 96%; at TIE2, 94%; on FRK, 58%. The Percent control amounted to 94% at FGFR3, 99% at FLT4, 94% on EPHB1 and 85% at LTK.

Turning to `C#Cc1cccc(Nc2ncnc3cc(OCCOC)c(OCCOC)cc23)c1` [Erlotinib], the Percent control in the assay on FLT3(ITD) is reported as 7.6%. Also, the remaining activity at 10 µM on KIT(A829P) turned out to be 100%.

In the case of `COc1cc2c(Nc3ccc(Br)cc3F)[n+]([Pt-2]3([Cl])[NH2+]C4CCCCC4[NH2+]3)cnc2cc1OCC1CCN(C)CC1` (stereo not shown) [3b, oxaliplatin-vandetanib], the Percent control on ITK was 95%; at TIE2 it was 49%; on FRK, 56%; on FLT4, 14%; on EPHB1, 31%; on LTK, 27%.

As for `C#Cc1cccc(Nc2c3cc(OCCOC)c(OCCOC)cc3nc[n+]2[Pt@SP2-2]([NH3+])([NH3+])[Cl])c1` [2a, cisplatin-erlotinib], the Percent control is 79% in the assay with FLT3(ITD); 100% on RET(V804TL); 84% at ITK; 77% on FGFR1; 94% at TIE2; 75% at FRK. In addition, the Percent control at FGFR3 was 89%; on FLT4 it was 90%; at EPHB1, 90%; on LTK, 82%.

With `Cc1ccc(NC(=O)c2ccc(CN3CCN(C)CC3)cc2)cc1Nc1nccc(-c2cccnc2)n1` [Imatinib, reference compound], the Percent control in the assay on FLT3(ITD) turned out to be 38.7%; at RET(V804TL), 100%; at FGFR1, 100%; on TIE2, 100%; on FRK, 13.0%; at FGFR3, 100%. The Percent control at FLT4 came out at 100%; on EPHB1 it was 100%; at LTK it was 92%. For the same molecule, the remaining activity at 10 µM on KIT(A829P) was 0.1%.

These data come from publication PMC4858680, “A platinum-based hybrid drug design approach to circumvent acquired resistance to molecular targeted tyrosine kinase inhibitors” (Scientific Reports, 2016).
